The record followed here is publication PMC6255753, “Investigation of the phosphorylation of Bacillus subtilis LTA synthases by the serine/threonine kinase PrkC” (Scientific Reports, 2018).

Holding throughout (assay): thermal shift titration (SYPRO Orange), Hill fit
Type in all cases: binding
Settings in all cases: read-out: Apparent KD

Experiment [1] concerns the target T1, eYfnI (YfnI) (Bacillus subtilis, UniProt Q797B3).
T1 construct: gene ltaS1; extracellular catalytic domain (borders not given), N-terminal 6His tag removed by AcTEV; E. coli Rosetta; pProEX-eYfnI
The text has this: (§1) thermal shift titration (SYPRO Orange), Hill fit on eYfnI (YfnI)

Experiment [2] has as its target T2, eYfnI (YfnI) (Bacillus subtilis, UniProt Q797B3, T297A).
T2 construct: gene ltaS1; extracellular catalytic domain (borders not given), N-terminal 6His tag removed by AcTEV; E. coli Rosetta; pProEX-eYfnI
Excerpt: as §1

In experiment [3] the target is T3, eYfnI (YfnI) (Bacillus subtilis, UniProt Q797B3, T297D).
T3 construct: gene ltaS1; extracellular catalytic domain (borders not given), N-terminal 6His tag removed by AcTEV; E. coli Rosetta; pProEX-eYfnI
T3 sequence (Q797B3 215-639 T297D): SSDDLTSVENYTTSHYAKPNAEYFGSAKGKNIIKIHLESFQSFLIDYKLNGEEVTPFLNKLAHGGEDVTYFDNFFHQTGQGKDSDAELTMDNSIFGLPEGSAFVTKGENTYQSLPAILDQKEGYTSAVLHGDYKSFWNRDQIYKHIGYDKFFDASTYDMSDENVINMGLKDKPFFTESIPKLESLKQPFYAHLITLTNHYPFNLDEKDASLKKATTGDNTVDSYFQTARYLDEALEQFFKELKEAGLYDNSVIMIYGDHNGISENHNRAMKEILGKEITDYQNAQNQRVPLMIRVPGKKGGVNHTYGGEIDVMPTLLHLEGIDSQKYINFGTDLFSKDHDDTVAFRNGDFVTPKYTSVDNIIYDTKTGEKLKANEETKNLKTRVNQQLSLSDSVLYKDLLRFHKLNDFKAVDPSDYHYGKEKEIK
Excerpt: as §1

T1 sequence (Q797B3 215-639): as the sequence (Q797B3 215-639 T297D) above, with D83T counted along it
T2 sequence (Q797B3 215-639 T297A): as the sequence (Q797B3 215-639 T297D) above, with D83A counted along it

Consider `O=P(O)(O)OCC(O)CO` (stereo not drawn) [GroP], for which the Kd in experiment [1] was 2.9 mM; in experiment [2], 8 mM; in experiment [3] it was 5.4 mM.
